# Reference: patent publication US20230331720A1, “MEDIUM- OR MACRO-CYCLIC BENZYL-SUBSTITUTED HETEROCYCLE DERIVATIVES AND THEIR USES AS OREXIN-2 RECEPTOR AGONISTS” (Orexia Therapeutics Limited, priority 2020, published 2023)
# Read-outs that look alike come from different tables or passages of the source.
# What was measured:
# [1] = not given; remark: listed apart in the source
# [2] = molecular target: T1, human orexin type 2 receptor (hOX2R) (Homo sapiens, UniProt O43614); assay: Orexin type 2 receptor agonist activity, intracellular Ca2+ (FLIPR TETRA); format: cell-based; conditions: CHO cells expressing hOX2R; Ca2+ fluorescence area; read-out: hOx2 pEC50 (converted)
# T1 construct: expressed in transfected cells
# T1 sequence (O43614 1-444): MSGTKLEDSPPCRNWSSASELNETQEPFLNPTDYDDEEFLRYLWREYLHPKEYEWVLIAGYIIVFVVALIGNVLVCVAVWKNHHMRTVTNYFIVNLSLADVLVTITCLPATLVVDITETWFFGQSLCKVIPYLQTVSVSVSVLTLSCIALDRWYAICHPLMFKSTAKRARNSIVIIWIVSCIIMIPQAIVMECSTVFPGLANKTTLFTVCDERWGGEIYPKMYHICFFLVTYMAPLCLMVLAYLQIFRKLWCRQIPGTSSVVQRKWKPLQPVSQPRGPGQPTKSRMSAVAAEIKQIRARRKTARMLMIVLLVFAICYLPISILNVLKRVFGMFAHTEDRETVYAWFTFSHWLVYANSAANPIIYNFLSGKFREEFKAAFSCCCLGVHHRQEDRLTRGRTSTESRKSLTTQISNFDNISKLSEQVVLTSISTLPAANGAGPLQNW
# Procedure: Stable cell line generation. Obtainment of cells stably expressing either human orexin type 2 or human orexin type 1 receptor; to obtain a stable cell line the Orexin receptor cDNA was inserted into pcDNA3.1(+) plasmid vector and clones identified by G418 drug resistance selection. […] A single clone for OX2R-CHO and OX1R-CHO were grown in bulk and frozen to generate a cell bank for routine screening.
# Measurement of orexin type 2 receptor agonist activity. Chinese hamster ovary (CHO) cells expressing human orexin type 2 receptor (hOX2R) or human orexin type 1 receptor (hOX1R) were seeded in each well of 384 well black clear bottom plates (BD Flacon) at 10,000 cells per well and cultured for 24 hr in an Ham's F12 (Gibco) medium containing 10% fetal calf serum (Sigma Aldrich) under the conditions of 37° C., 5% CO2. After removal of the medium, 50 μl of assay buffer 1 (0.1% bovine serum albumin (Sigma Aldrich), 20 mM HEPES (Molecular Dimensions), […] probenecid (Sigma Aldrich), 1× Calcium 5 dye (Molecular Devices) in Hank's balanced salt solution (Invitrogen)) was added, and the cells were incubated for 60 min under the conditions of 37° C., 5% CO2. A test compound was dissolved in dimethyl sulfoxide (Sigma Aldrich) to 10 mM, and then diluted with assay buffer 2 (20 mM HEPES, Hank's balanced salt solution, 0.1% bovine serum albumin). For the reaction, a test compound solution (10 μl) was added using Fluorescent Imaging Plate Reader TETRA (FLIPR TETRA: manufactured by Molecular Devices), a fluorescence value (excitation wavelength 488 nm, measurement wavelength 570 nm) of each well was measured every one second for 2 min, and the agonist activity was determined using the area of the fluorescence value as an indicator of intracellular Ca^2+ concentration. The agonist activity of the test compound was calculated assuming that the fluorescence value of the well added with only the dilution buffer was 0% and the fluorescence value of the well added with 10 nM human orexin A (Tocris) buffer was 100%. As used herein, Emax indicates the value at 10 μM concentration when orexin A is converted to a full agonist (maximum value of agonist activity: 100%).
# [3] = test system: mouse models of narcolepsy type 1 / WT mice; conditions: cited from earlier work
# individuals with NT1 = conditions: initial clinical studies; cited from earlier work
# [4] = amide bond, 13-membered ring, HATU/DIEA, DMF, 10.0 mM, 25.0 °C
compound,measurement,setting,value
CN(C)S(=O)(=O)NC1CCCN2C(=O)CCOc3ccccc3-c3cccc(c3)CC12 (stereo not drawn),"ring closure, yield after HPLC","from CN(C)S(=O)(=O)NC1CCCNC1Cc1cccc(-c2ccccc2OCCC(=O)O)c1, amide bond, 12-membered ring, HATU/DIEA, DMF, 0.4 mM, 20.0 °C, 12.0 h",29.9%
O=C1CCCN2C(=O)CCOc3cccc(F)c3-c3cccc(c3)CC12 (stereo not drawn),"ring closure, isolated yield","[1]; from O=C(O)CCOc1cccc(F)c1-c1cccc(CC2NCCCC2=O)c1, amide bond, 12-membered ring, HATU/DIEA, DMF, 0.49 mM, 25.0 °C, 12.0 h",27.7%
O=C1CCCN2C(=O)CCOc3ccccc3-c3cc(ccc3F)CC12 (stereo not drawn),"ring closure, isolated yield","[1]; from O=C(O)CCOc1ccccc1-c1cc(CC2NCCCC2=O)ccc1F, amide bond, 12-membered ring, HATU/DIEA, DMF, 0.54 mM, 25.0 °C, 12.0 h",28.4%
"O=C1CCOc2ccc(F)cc2-c2cccc(c2)C[C@H]2[C@@H](NS(=O)(=O)CF)CCCN12 [Compound A1-91, 1-fluoro-N-((4^2S,4^3S)-15-fluoro-5-oxo-8-oxa-4(2,1)-piperidina-1(1,2),2(1,3)-dibenzenacyclooctaphane-4^3-yl)methanesulfonamide]",EC50,[2],1 to 10 nM
"CN1CCOc2ccccc2-c2cccc(c2F)C[C@H]2[C@@H](NS(=O)(=O)CF)[C@@H](F)CN2C1=O [Compound A1-92, N-((4^2S,4^3R,4^4S)-2^2,4^4-difluoro-6-methyl-5-oxo-9-oxa-6-aza-4(2,1)-pyrrolidina-1(1,2),2(1,3)-dibenzenacyclononaphane-4^3-yl)-1-fluoromethanesulfonamide]",EC50,[2],1 to 10 nM
"CN1CCOc2ccccc2-c2cccc(c2)C[C@H]2[C@@H](NS(=O)(=O)C(F)F)C3(CC3)CN2C1=O [Compound A1-95, 1,1-difluoro-N-((2′S,3′S)-6′-methyl-5′-oxospiro[cyclopropane-1,4′-9-oxa-6-aza-4(2,1)-pyrrolidina-1(1,2),2(1,3)-dibenzenacyclononaphan]-3′-yl)methanesulfonamide]",EC50,[2],1 to 10 nM
O=C1CCOc2ccccc2-c2cccc(c2F)C[C@H]2[C@@H](NS(=O)(=O)C(F)F)[C@@H](F)CN12 [Compound A1-96],EC50,[2],10 to 100 nM
O=C1CCOc2ccccc2-c2cc(F)cc(c2F)C[C@H]2[C@@H](NS(=O)(=O)CF)CCCN12 [Compound A1-97],EC50,[2],10 to 100 nM
O=C1CCOc2ccccc2-c2cccc(c2F)C[C@H]2[C@@H](NS(=O)(=O)C(F)F)CCCN12 [Compound A1-98],EC50,[2],0.1 to 1 nM
O=C1CCOc2ccccc2-c2cccc(c2)C[C@H]2[C@@H](NS(=O)(=O)CF)C3(CC3)CN12 [Compound A1-99],EC50,[2],10 to 100 nM
CCS(=O)(=O)N[C@H]1CCCN2C(=O)CCOc3ccccc3-c3cccc(c3F)C[C@@H]12 [Compound A1-100],EC50,[2],1 to 10 nM
O=C1CCOc2ccccc2-c2cccc(c2F)C[C@H]2[C@@H](NS(=O)(=O)CF)CCCN12 [Compound A1-102],EC50,[2],10 to 100 nM
COC(=O)N1CCC[C@H](NS(C)(=O)=O)[C@@H]1CO[C@H]1CC[C@@H](c2ccccc2)CC1 [TAK-925],wakefulness,"[3]; subcutaneous administration, OX2R-knockout mice",not
same,wakefulness,"[3]; subcutaneous administration, WT mice",modestly increased wakefulness
same,cataplexy,individuals with NT1,trends for decreasing cataplexy
same,wakefulness,individuals with NT1,substantial levels of increased wakefulness
COc1ccc(-c2cccc(C(=O)N(C)C)c2)cc1S(=O)(=O)Nc1cccc(NCCNC(=O)c2ccccc2N(C)C)c1 [YNT-185],sleep-onset REM periods and cataplexy-like events,"[3]; intraperitoneally or ICV, NT1 mouse model",decrease sleep-onset REM periods and cataplexy-like events
same,wakefulness,"[3]; intraperitoneally or ICV, wild type (WT) and orexin ligand-deficient mice",modestly increases wakefulness
"N-(1^3,1^5-difluoro-5-oxo-4(2,1)-pyrrolidina-1(1,2),2(1,3)-dibenzenacyclo-undecaphane-4^3-yl)ethanesulfonamide_cis racemic","ring closure, yield after HPLC","amide bond, 15-membered ring, HATU/DIEA, DCM, 11.7 mM, 25.0 °C",8%
"N-(1^3,1^5-difluoro-5-oxo-6-aza-4(2,1)-pyrrolidina-1-(1,2),2-(1,3)-dibenzena-cycloundecaphane-4^3-yl)ethanesulfonamide_cis racemic","ring closure, yield after HPLC","crosslinker bond, 15-membered ring, CDI/DIEA, DMF, 52.5 mM, 25.0 °C",11%
"N-(5-oxo-4(2,1)-piperidina-1(1,2),2(1,3)-dibenzenacyclononaphane-4^3-yl)-methanesulfonamide_cis racemic","ring closure, isolated yield","[1]; amide bond, 13-membered ring, HATU/DIEA, DMF, 9.9 mM, 25.0 °C",27%
"N-(5-oxo-4(2,1)-piperidina-1(1,2),2(1,3)-dibenzenacycloundecaphane-4^3-yl)methanesulfonamide_cis racemic","ring closure, isolated yield","[1]; amide bond, 15-membered ring, HATU/DIEA, DMF, 8.9 mM, 25.0 °C",67%
"N-(5-oxo-6,9-dioxa-4(2,1)-pyrrolidina-1(1,2),2(1.3)-dibenzenacyclo-nonaphane-4^3-yl)ethanesulfonamide_cis racemic","ring closure, yield after HPLC","crosslinker bond, 13-membered ring, CDI/DIEA, DMF, 10.0 mM, 80.0 °C",22%
"N-(5-oxo-6-aza-4(2,1)-piperidina-1(1,2),2(1.3)-dibenzenacyclo-undecaphane-4^3-yl)methanesulfonamide_cis racemic","ring closure, isolated yield","[1]; crosslinker bond, 15-membered ring, CDI/DIEA, DMF, 10.0 mM, 70.0 °C",23%
"N-(5-oxo-9-oxa-4(2,1)-piperidina-1(1,2),2(1,3)-dibenzenacyclononaphane-4^3-yl)methanesulfonamide_cis racemic","ring closure, isolated yield",[1]; [4],38%
"N-(5-oxo-9-oxa-4(2,1)-pyrrolidina-1(1.2),2(1,3)-dibenzenacyclo-nonaphane-4^3-yl)ethanesulfonamide_cis racemic","ring closure, isolated yield",[1]; [4],49%
"N-(5-oxo-9-oxa-6-aza-4(2,1)-piperidina-1(1,2),2(1,3)-dibenzenacyclo-nonaphane-4^3-yl)methanesulfonamide_cis racemic","ring closure, isolated yield","[1]; crosslinker bond, 13-membered ring, CDI/DIEA, DMF, 97.5 mM, 70.0 °C",23%
"N-(5-oxo-12-oxa-6-aza-4(2,1)-pyrrolidina-1(1,2),2(1,3)-dibenzenacyclo-dodeca phane-43-yl)ethanesulfonamide_cis racemic","ring closure, isolated yield","[1]; crosslinker bond, 16-membered ring, CDI/DIEA, THF/DMF 4:1, 10.0 mM, 70.0 °C",38%
"N-(5-oxo-12-phenyl-2,3,5,6,7,8,9,10,16,16a-decahydro-1H-benzo[b]pyrrolo[2,1-e][1]oxa[6]azacyclododecin-1-yl)ethanesulfonamide_cis racemic","ring closure, yield after HPLC","ether bond, 12-membered ring, K2CO3, DMF, 10.7 mM, 80.0 °C",10%
"N-(6-methyl-5-oxo-9-oxa-6-aza-4(2,1)-piperidina-1(1,2),2(1,3)-dibenzena-cyclo-nonaphane-4^3-yl)methanesulfonamide_cis racemic","ring closure, yield after HPLC","crosslinker bond, 13-membered ring, triphosgene/DIEA, DCM, 8.5 mM, 25.0 °C",3%
"N-((4^2,4^3S)-5-oxo-8-oxa-4(2,1)-piperidina-1(1,2),2(1.3)-dibenzenacyclo-octaphane-4^3-yl)ethanesulfonamide","ring closure, yield after HPLC","amide bond, 12-membered ring, HATU/DIEA, DMF, 2.24 mM, 25.0 °C",29.4%
"N-((4^2S,4^3S)-5-oxo-4(2,1)-piperidina-1(1,2),2(1,3)-dibenzenacyclooctaphane-4^3-yl)methanesulfonamide","ring closure, isolated yield","[1]; amide bond, 12-membered ring, HATU/DIEA, DMF, 6.5 mM",6%
"N-((4^2S,4^3S)-5-oxo-8-oxa-4(2,1)-piperidina-1(1,2),2(1,3)-dibenzenacyclo-octaphane-4^3-yl)methanesulfonamide","ring closure, yield after HPLC","amide bond, 12-membered ring, HATU/DIEA, DMF, 2.31 mM, 25.0 °C",23.4%
